Assay [1] concerns the target T1, SMARCA4-HiBiT HeLa cells (protein which is expressed from the SMARCA4 gene) (Homo sapiens, UniProt P51532).
T1 construct: protein which is expressed from the SMARCA2 and SMARCA4 genes; host or cells: HeLa (SMARCA4-HiBiT engineered line)
As to the kind of experiment: SMARCA4 degradation assay (HiBiT-fusion HeLa cell line, 24 h, luminescence). In kind it is cell-based. In outline: (§1)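 HeLa cells carrying HiBiT-tagged SMARCA2 or SMARCA4 were seeded at 8,000 cells/well, allowed to attach overnight at 37° C., then given compounds in a 10-point dilution series (typically 10 μM to 300 pM) for 24 hours at 37° C. Remaining tagged protein was read by HiBiT lytic luminescence, and DC50s came from dose-response curves.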
(The HiBiT peptide binds its large partner to form an active luciferase.)

The target of assay [2] is T2, SMARCA2-HiBiT HeLa cells (protein which is expressed from the SMARCA2 gene) (Homo sapiens, UniProt P51531).
T2 construct: protein which is expressed from the SMARCA2 and SMARCA4 genes; host or cells: HeLa (SMARCA2-HiBiT engineered line)
T2 sequence (P51531 whole entry): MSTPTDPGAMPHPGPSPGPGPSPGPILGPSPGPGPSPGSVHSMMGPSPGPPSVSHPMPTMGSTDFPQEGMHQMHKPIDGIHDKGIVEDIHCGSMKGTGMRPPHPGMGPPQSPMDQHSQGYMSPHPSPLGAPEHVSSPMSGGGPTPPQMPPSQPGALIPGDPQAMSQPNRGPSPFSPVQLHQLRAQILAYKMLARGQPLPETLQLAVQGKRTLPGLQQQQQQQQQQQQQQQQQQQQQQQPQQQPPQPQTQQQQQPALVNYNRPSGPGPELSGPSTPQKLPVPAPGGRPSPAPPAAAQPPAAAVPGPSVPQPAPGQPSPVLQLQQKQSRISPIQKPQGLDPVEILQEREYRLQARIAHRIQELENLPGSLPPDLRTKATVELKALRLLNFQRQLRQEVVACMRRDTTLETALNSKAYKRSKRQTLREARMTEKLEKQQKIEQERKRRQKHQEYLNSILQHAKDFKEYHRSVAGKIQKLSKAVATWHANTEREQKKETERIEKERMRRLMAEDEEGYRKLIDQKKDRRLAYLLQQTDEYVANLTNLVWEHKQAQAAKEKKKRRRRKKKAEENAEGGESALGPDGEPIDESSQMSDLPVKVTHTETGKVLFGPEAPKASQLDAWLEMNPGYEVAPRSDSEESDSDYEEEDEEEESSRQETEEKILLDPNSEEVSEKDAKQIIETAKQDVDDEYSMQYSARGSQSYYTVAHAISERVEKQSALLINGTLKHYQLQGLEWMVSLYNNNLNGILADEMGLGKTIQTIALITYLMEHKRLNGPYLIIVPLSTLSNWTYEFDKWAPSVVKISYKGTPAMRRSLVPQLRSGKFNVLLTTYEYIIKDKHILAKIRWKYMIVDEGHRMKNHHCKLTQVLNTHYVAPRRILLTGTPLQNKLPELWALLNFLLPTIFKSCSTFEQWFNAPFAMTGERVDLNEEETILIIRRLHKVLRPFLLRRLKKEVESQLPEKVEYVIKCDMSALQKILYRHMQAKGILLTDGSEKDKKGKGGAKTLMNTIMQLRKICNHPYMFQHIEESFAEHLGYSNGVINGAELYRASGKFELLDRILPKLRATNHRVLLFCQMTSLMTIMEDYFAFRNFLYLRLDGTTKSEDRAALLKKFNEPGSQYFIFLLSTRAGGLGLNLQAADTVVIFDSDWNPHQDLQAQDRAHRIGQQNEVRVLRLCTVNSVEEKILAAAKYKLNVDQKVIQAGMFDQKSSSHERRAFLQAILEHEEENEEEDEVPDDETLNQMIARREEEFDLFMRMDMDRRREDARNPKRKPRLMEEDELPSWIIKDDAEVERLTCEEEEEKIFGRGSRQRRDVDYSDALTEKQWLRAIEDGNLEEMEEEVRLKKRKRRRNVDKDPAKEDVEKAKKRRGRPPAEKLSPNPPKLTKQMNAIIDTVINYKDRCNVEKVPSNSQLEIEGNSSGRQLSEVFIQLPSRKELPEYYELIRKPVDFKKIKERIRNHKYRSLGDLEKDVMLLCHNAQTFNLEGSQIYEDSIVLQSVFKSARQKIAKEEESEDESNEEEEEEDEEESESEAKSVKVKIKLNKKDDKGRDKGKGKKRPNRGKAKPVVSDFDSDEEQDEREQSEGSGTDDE
Nature of the assay: SMARCA2 degradation assay (HiBiT-fusion HeLa cell line, 24 h, luminescence). The class given is cell-based. A digest of the protocol:
as §1

T1 sequence (P51532 whole entry): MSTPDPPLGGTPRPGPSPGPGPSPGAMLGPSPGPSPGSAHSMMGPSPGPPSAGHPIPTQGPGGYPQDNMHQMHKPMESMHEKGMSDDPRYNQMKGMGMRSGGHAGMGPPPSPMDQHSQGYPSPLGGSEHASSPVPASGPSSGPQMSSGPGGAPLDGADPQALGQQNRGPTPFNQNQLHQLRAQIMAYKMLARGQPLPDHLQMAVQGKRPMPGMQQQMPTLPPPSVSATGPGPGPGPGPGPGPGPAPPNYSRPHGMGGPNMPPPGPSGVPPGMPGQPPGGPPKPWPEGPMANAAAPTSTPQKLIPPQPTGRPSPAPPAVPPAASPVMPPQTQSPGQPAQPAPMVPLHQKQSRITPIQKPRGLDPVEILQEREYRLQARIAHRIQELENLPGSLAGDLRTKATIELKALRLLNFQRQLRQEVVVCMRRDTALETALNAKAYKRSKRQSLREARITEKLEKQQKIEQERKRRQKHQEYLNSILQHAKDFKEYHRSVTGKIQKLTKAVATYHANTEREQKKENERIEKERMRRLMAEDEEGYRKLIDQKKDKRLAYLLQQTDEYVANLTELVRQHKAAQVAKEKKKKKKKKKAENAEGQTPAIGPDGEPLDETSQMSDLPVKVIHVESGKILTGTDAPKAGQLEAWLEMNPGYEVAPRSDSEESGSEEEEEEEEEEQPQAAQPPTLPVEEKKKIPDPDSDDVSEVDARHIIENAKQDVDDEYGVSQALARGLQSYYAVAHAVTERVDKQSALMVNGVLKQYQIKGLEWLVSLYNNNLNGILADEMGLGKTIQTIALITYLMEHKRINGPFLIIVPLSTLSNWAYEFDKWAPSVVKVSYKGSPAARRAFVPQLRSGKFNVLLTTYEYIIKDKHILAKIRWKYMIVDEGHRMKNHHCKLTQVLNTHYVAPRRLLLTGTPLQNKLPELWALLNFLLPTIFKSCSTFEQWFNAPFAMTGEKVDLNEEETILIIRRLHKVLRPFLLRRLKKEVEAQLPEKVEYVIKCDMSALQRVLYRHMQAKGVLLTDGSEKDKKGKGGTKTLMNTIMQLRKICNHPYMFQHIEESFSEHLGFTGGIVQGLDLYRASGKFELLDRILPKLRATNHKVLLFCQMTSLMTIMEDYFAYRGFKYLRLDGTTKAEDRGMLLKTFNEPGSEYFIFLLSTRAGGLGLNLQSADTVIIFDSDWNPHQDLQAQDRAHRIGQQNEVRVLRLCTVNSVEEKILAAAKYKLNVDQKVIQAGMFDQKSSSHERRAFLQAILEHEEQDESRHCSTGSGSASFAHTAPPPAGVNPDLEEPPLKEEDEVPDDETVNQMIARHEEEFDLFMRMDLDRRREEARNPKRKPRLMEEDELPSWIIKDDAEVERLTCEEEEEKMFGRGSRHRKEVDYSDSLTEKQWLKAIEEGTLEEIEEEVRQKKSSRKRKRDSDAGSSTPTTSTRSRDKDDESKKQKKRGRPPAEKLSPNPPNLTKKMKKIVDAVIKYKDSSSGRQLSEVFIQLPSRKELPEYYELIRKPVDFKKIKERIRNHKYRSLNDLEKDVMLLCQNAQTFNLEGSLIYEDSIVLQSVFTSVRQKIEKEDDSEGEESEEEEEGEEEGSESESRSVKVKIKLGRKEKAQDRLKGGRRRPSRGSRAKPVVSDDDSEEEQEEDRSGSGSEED

As usually defined, the DC50 is the midpoint of the concentration-degradation curve. Low values mean degradation at low concentration, high ones degradation only at high concentration. For orientation: inhibition means how much of the control response was suppressed. A high value points to a strong effect. Consider `C[C@@H]1CCN(c2cc(-c3ccccc3O)nnc2N)CCN1c1ccnc(C#CCN2CC(F)(F)[C@@H]2C)n1` [Compound P-270, 0-{5-[(R)-4-(2-{3-[(S)-3,3-difluoro-2-methyl-1-azetidinyl]-1-propyny1}-4-pyrimidinyl)-5-methyl-1,4-diazepan-1-yl]-6-amino-3-pyridaziny1} phenol], for which the DC50 in assay [1] and in assay [2] was 50 to 500 nM each time. Further, the inhibition at 1 µM in assay [1] (@ 1 μM) lay within 30 to 70%. The “SMARCA2 % Degradation @ 1 μM” value in assay [2] (@ 1 μM) was “++ (++=30-70%)”.
For the molecule `Cc1cc(C(=O)NCC#Cc2nccc(N3CCN(c4cc(-c5ccccc5O)nnc4N)CC3)n2)no1` [Compound P-1, N-[3-(4-{4-[3-amino-6-(2-hydroxyphenyl)pyridazin-4-yl]piperazin-1-yl}pyrimidin-2-yl)prop-2-yn-1-yl]-5-methyl-1,2-oxazole-3-carboxamide], the DC50 in assay [1] and in assay [2] was 50 to 500 nM each time. For the same molecule, the inhibition at 1 µM in assay [1] (@ 1 μM) was in the range of 30 to 70%. In addition, in assay [2] (@ 1 μM), the “SMARCA2 % Degradation @ 1 μM” value is given as “++ (++=30-70%)”.
`C[C@@H]1CCN(c2cc(-c3ccccc3O)nnc2N)CCN1c1ccnc(C#CC2CCC2)c1` [Compound P-388, 0-(5-{(R)-4-[2-(2-cyclobutylethynyl)-4-pyridyl]-5-methyl-1,4-diazepan-1-yl}-6-amino-3-pyridazinyl)phenol]: the DC50 in assay [1] was 500 to 5000 nM; in assay [2], 50 to 500 nM. Further, the inhibition at 1 µM in assay [1] (1 μM) lay within 30 to 70%. Moreover, the “SMARCA2 % Degradation @ 1 μM” value in assay [2] (1 μM) is listed as “++ (++=30-70%)”.
Turning to `C[C@@H]1CCN(c2cc(-c3ccccc3O)nnc2N)CCN1c1ccnc(C#CC2CC2)c1` [Compound P-391, 0-(5-{(R)-4-[2-(2-cyclopropylethynyl)-4-pyridyl]-5-methyl-1,4-diazepan-1-yl}-6-amino-3-pyridazinyl)phenol], the DC50 in assay [1] and in assay [2] was 50 to 500 nM throughout. Besides, the “SMARCA2 % Degradation @ 1 μM” value in assay [2] (1 μM) was “++ (++=30-70%)”.
Regarding `Nc1nnc(-c2ccccc2O)cc1N1C[C@H]2C[C@@H]1CN2c1ccnc(C#CCN2CCCCC2)n1` [Compound P-285, 0-(5-{(1R,4R)-5-[2-(3-piperidino-1-propynyl)-4-pyrimidinyl]-2,5-diazabicyclo[2.2.1]hept-2-y1}-6-amino-3-pyridazinyl)phenol], the DC50 in assay [1] and in assay [2] was below 50 nM in each case. This molecule also returned an inhibition at 1 µM in assay [1] (@ 1 μM) below 30%. Moreover, in assay [2] (@ 1 μM), the “SMARCA2 % Degradation @ 1 μM” value was “++ (++=30-70%)”.
Consider `CNCC#Cc1nccc(N2C[C@H]3C[C@@H]2CN3c2cc(-c3ccccc3O)nnc2N)n1` [Compound P-295, 0-{5-[(1R,4R)-5-{2-[3-(methylamino)-1-propynyl]-4-pyrimidinyl}-2,5-diazabicyclo[2.2.1]hept-2-y1]-6-amino-3-pyridazinyl} phenol], for which the DC50 in assay [1] and in assay [2] was 50 to 500 nM each time. In assay [1] (@ 1 μM), this molecule returned an inhibition at 1 µM below 30%. Moreover, the “SMARCA2 % Degradation @ 1 μM” value in assay [2] (@ 1 μM) is reported as “++ (++=30-70%)”.
Regarding `Nc1nnc(-c2ccccc2O)cc1N1CCCN(c2ccnc(C#CCN3C(=O)c4ccccc4C3=O)n2)CC1` [Compound P-375, 2-[3-(4-{4-[3-amino-6-(o-hydroxyphenyl)-4-pyridaziny1]-1,4-diazepan-1-yl}-2-pyrimidinyl)-2-propynyl]-1,3-isoindolinedione], the DC50 in assay [1] and in assay [2] was 50 to 500 nM in each case. Also, the “SMARCA4 % Degradation @ 1 μM” value in assay [1] (@ 1 μM) was “++ (++=30-70%)”. The “SMARCA2 % Degradation @ 1 μM” value in assay [2] (@ 1 μM) was “+++ (+++=>70%)”.
As for `Nc1nnc(-c2ccccc2O)cc1N1C[C@H]2CN(c3ccnc(C#CCN4CC(F)(F)C4)n3)C[C@H]2C1` [Compound P-180], the DC50 in assay [1] and in assay [2] was below 50 nM each time. This molecule had an inhibition at 1 µM in assay [1] (@ 1 μM) of 30 to 70%. The “SMARCA2 % Degradation @ 1 μM” value in assay [2] (@ 1 μM) is “++ (++=30-70%)”.

The values above are taken from patent publication US20260265238A1, “COMPOUNDS AND PHARMACEUTICAL COMPOSITIONS THAT DEGRADE SWI/SNF-RELATED MATRIX-ASSOCIATED ACTIN-DEPENDENT REGULATOR OF CHROMATIN SUBFAMILY A” (Plexium, Inc., priority 2023, published 2026).
